Test results published in patent US20240269094A1, “Treatment of canine dermatitis and skin irritation” (priority 2023, published 2024).
“Also recorded” adds a separate entry of the source. Read-outs that look alike come from different tables or passages of the source. Each block holds one compound with its values, some of them ahead of it.

Experiments:
oral cavity = conditions: 100 ppm in 5% sucrose; scale of 0 to 9 units; Johnson, 2018; cited from earlier work
TRPM8 [1] = target: T1, TRPM8 (Homo sapiens, UniProt Q7Z2W7); experiment: Bioassay of FEMA 4557 in TRPM8 (laboratory of Prof. Seok-Yong Lee, FIG. 4); format: cell-based
Description: (§1) FIG. 4 Bioassay of FEMA 4557 (labeled as BUDA on the graph) in TRPM8 and TRPA1. Data from the laboratory of Prof. Seok-Yong Lee at Duke University.
(§2) FIG. 4 Bioassay of FEMA 4557 (labeled as BUDA) in TRPM8 and TRPA1. Data of Prof. Seok-Yong Lee at Duke University.

philtrum skin = experiment: Philtrum (skin) bioassay of cooling; format: in vivo, human
Description: FIG. 5. The philtrum bioassay. Cooling agents, prepared as a or in solution are applied to the philtrum skin. Cooling intensity is rated on a scale of 0 to 3, with 0=no changes in sensation, 1=a slight feeling of coolness, cold or tingling, 2=a clearcut feeling of coolness of cold, and 3=a robust feeling of coolness of cold. The duration of cooling was recorded until two zeroes were measured 10 min apart.
TRPM8 EC50 Receptor Assay. […] A receptor assay is a standard tool and can be done quickly. For example, in a 384-plate assay, you can easily test 10 compounds and get dose-response data. For a chemical agonist, an in vitro TRPM8 assay generates an EC50 (median effective concentration). But the quantitative correlation between the EC50 on TRPM8 and cooling sensation was vague. That is, the science was “roughly” predictive, but there was considerable uncertainty for each agonist. […] Philtrum (Skin) Assay. For cooling sensations on the skin, it is necessary to test the substance on the skin. Wei proposed the use of the skin on the philtrum as a test site for cooling activity of chemicals (FIG. 5). The test substance is dissolved in a carrier, such as solvent, gel, or ointment and applied to the philtrum, a surface area of […]. The subject records sensations on the philtrum and environs as:
The subject is given a form to record observations and instructions to mark sensations on the philtrum and environs as: 0=no changes in sensation, 1=a slight feeling of coolness, cold, or tingling, 2=a clearcut feeling of coolness or cold, and 3=a robust feeling of coolness and cold.
The intervals for measurements are usually at 5, to 15 min after application, until two successive zeros are obtained. The philtrum application site is the midline groove above the upper lip border and vermilion. The gel is placed on the philtrum with a cotton-tipped applicator up to the nasolabial folds and sometimes, but not deliberately, on the lower nostrils (subnasale). Cold receptors densely innervate the philtrum skin (FIG. 5), second only to the surfaces of the eyeball and anogenitalia. The lips also have a high density of “cold spots.” Hensel et al. mapped the cold spots on the human face (cited in Dhaka et al., 2008). In animals such as the rat the mystacial pad (nose pad with vibrissae) is abundantly labeled with TRPM8-fibers. “Cold Points” linked to single-unit neuronal discharges can be measured in experimental animals. Wei has direct experience in such experiments (Poree et al., 1989).
Dip a cotton-tipped applicator (Puritan Cotton-tipped applicators, or Q-Tips) into a reservoir bottle containing the liquid or semi-liquid (gel) test substance. The composition adhering to the cotton (about 0.1 mL) is put on the skin. The philtrum site is shown in a cartoon. A subject can practice the method in front of a mirror with a high-intensity light source. Results for test on the philtrum are in Table 8 and FIG. 5. See data in FIG. 6. Cooling agents, prepared as an 8% wt./vol. gel, was tested topically on the philtrum skin assay. The duration of cooling was recorded (min on y-axis). The startling activity of FEMA 4557, cooling for ˜3 hr, was unexpected and surprising. FEMA 3784 is also known as Cool 10 or menthoxypropanediol. […]

[2] = system: canine dermatitis, scratching and licking; experiment: Topical treatment of canine skin irritation (case studies); format: in vivo, dog; conditions: 32% wt/vol liquid in 1,2-propanediol, 4% ethanol, 4% l-menthol
TRPM8 [3] = target: T1, TRPM8; design: EC50; other: Johnson, 2.2/2.2; conditions: Ref. 5 (Johnson et al., 2018); cited from earlier work
tongue = experiment: Oral cavity screen: 15 mg of crystals on the dorsal surface of the tongue; format: in vivo, human
Description: In this discovery, sensory activity in the oral cavity was the first screen. The goal was to identify candidates producing unusual sensations. Test agents, prepared as 15 mg of white crystals, were placed on the dorsal surface of the tongue. The chemical structures and identifying characteristics are in Table 1. […] Related cooling agents were not freezing cold, except for WS-23.

[4] = system: canine dermatitis, scratching and licking; experiment: Topical treatment of canine skin irritation (case studies); format: in vivo, dog
Description: The Applicant gave the dog's owner an airless pump dispenser containing 8% wt/vol of FEMA 4557 dispersed in 4 mg/ml of carbapol 980, formulated with 1% ethanol and 1% menthol, and instructed him to apply the gel to the skin of the dog's belly and groin.
A twelve-year-old West Highland Terrier had periodic episodes of seasonal skin allergy. […] The owner of the dog, who had access to a pharmacy, applied nystatin ointment and a potent skin steroid cream containing […].
Next, a 20% wt/vol FEMA 4557 solution, dissolved in propylene glycol, was applied to the interdigital folds of the paws with a cotton-tipped applicator (FIG. 9).

TRPA1 [5] = target: T2, TRPA1 (Homo sapiens, UniProt O75762); conditions: Johnson et al. 2018; applicant could not repeat; cited from earlier work
T2 construct: expressed in transfected cells

TRPA1 [6] = target: T2, TRPA1; experiment: Bioassay in cells transfected with TRPA1 (FIG. 4); format: cell-based
Description: as §1, §2

[7] = Comparison of classes of cooling agents for applications on the canine skin (grades); design: species or system dog; key: A = excellent; B = average; C = poor; F = does not work; conditions: grade
Description: Here are comments on grades assigned to specific classes of cooling agents (Table 3). […] The p-menthane carboxamides cover a wide range of compounds, but they are difficult for skin formulation to achieve a long duration of action. Menthol is short-acting and irritating, especially when it is near the ocular surface. The 1-dialkylphosphorylalkane known as DIPA1-7 (Cryosim-1, 1-dialkylphosphorylheptane) is an excellent skin agent, but costs are high for dermatological applications.

TRPM8 [8] = target: T1, TRPM8; experiment: TRPM8 in vitro assay, EC50 of cooling agents (published data, Table 5 / FIG. 3); format: cell-based; design: EC50; other: Johnson, 2.2/2.2; conditions: Johnson, 2.2/2.2
Description: (§3) FIG. 3. Median Effective Dose (EC50) of various cooling agents in TRPM8 in vitro assay.
(§4) A receptor assay is a standard tool and can be done quickly. For example, in a 384-plate assay, you can easily test 10 compounds and get dose-response data. For a chemical agonist, an in vitro TRPM8 assay generates an EC50 (median effective concentration). But the quantitative correlation between the EC50 on TRPM8 and cooling sensation is not always clear. That is, the language of receptor identification and potency was “roughly” predictive, but there was considerable uncertainty for each agonist. […] Table 5 summarizes results on TRPM8 EC50 (see FIG. 3). The specific references for each value are: […] The full citations are listed in the References. Leffingwell. Ref. 4 gives the FEMA numbers for each compound.
(§5) FIG. 3. Median Effective Dose (EC50) of various cooling agents in TRPM8 in vitro assay. […] The Ref. No. in Table 5 are to: 1=McKemy et al., 2002; 2=Behrendt et al., 2004; 3=Bodding et al., 2007; 4=Sherkheli et al., 2010; and 5=Johnson et al., 2018.
(§6) TRPM8 EC50 Receptor Assay. […] A receptor assay is a standard tool and can be done quickly. […] But the quantitative correlation between the EC50 on TRPM8 and cooling sensation was vague. […]

TRPM8 [9] = target: T3, TRPM8 (Rattus norvegicus, UniProt Q8R455); experiment: as above; format: cell-based; design: EC50; other: Sherkheli, 196/1500; conditions: Sherkheli, 196/1500
Description: as §3, §4, §5, §6

TRPM8 [10] = target: T3, TRPM8; design: EC50; other: Sherkheli, 196/1500; conditions: Ref. 4 (Sherkheli et al., 2010); cited from earlier work
TRPM8 [11] = target: T4, TRPM8 (Mus musculus, UniProt Q8R4D5); experiment: TRPM8 in vitro assay, EC50 of cooling agents (published data, Table 5 / FIG. 3); format: cell-based; conditions: Behrendt et al., 4.1/44
Description: as §3, §4, §5, §6

TRPM8 [12] = target: T4, TRPM8; conditions: Ref. 2 (Behrendt et al., 2004); cited from earlier work
[13] = 8% wt/vol gel with ethanol, 1,2-propanediol, carbomer and dispersing agent or 0.2% DIPA-1-7 initiator
[14] = topical liquid or gel, Table 11

T2 sequence (O75762 whole entry, species assumed): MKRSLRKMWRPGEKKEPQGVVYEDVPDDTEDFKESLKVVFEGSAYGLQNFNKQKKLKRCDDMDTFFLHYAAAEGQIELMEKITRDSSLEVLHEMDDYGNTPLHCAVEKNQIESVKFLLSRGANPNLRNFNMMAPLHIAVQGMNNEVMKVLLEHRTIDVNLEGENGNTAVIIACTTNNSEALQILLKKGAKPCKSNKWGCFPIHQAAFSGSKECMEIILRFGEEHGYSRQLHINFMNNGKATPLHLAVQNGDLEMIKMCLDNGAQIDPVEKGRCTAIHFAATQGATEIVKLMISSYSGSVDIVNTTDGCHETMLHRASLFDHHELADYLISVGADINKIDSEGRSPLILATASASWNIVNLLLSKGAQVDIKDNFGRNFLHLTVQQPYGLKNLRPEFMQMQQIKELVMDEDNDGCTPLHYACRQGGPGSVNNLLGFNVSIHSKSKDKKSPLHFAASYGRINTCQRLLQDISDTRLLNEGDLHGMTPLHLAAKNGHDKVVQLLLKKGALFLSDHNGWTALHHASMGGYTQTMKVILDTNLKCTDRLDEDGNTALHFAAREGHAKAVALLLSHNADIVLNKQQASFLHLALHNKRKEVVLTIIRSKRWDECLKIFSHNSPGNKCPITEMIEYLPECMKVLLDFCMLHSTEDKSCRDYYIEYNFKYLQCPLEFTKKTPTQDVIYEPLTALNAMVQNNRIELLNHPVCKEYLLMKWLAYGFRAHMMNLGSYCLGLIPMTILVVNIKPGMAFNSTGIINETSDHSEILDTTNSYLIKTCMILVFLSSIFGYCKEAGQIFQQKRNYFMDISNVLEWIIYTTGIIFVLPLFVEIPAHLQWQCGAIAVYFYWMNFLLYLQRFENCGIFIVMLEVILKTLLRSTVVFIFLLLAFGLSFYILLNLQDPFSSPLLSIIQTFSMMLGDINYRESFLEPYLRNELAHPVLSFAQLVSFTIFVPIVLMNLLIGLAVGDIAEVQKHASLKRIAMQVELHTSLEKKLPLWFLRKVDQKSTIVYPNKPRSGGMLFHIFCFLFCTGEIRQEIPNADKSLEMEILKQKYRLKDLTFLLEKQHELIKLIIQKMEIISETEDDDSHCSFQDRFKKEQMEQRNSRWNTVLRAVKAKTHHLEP
T1 sequence (Q7Z2W7 whole entry, species assumed): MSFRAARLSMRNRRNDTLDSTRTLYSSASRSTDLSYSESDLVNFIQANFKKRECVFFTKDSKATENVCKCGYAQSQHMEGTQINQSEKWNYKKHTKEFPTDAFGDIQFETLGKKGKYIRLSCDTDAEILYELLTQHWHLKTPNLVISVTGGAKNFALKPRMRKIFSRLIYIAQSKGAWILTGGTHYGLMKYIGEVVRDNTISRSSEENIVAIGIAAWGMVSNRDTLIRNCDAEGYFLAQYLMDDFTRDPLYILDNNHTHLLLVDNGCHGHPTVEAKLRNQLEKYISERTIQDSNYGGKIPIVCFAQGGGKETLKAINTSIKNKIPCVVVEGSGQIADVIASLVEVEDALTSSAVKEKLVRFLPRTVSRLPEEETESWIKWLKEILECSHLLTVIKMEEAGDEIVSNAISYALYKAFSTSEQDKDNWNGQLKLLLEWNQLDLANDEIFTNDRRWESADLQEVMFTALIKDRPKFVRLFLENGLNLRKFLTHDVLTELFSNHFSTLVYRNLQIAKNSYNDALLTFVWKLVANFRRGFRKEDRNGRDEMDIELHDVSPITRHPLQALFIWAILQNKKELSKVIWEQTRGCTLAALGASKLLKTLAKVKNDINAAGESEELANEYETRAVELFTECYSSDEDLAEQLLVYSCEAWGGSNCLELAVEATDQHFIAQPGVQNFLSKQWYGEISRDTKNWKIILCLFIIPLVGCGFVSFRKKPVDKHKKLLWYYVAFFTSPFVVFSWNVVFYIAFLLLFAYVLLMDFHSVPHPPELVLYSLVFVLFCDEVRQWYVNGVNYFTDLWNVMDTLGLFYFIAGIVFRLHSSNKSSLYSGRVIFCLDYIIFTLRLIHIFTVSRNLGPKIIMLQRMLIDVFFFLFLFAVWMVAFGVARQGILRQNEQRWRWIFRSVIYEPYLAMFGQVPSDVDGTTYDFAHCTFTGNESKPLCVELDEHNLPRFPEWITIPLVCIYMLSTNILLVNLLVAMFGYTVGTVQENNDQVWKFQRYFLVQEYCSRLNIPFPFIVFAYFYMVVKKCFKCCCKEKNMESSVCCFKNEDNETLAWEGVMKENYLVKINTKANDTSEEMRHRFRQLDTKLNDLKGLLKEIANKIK
T4 sequence (Q8R4D5 whole entry): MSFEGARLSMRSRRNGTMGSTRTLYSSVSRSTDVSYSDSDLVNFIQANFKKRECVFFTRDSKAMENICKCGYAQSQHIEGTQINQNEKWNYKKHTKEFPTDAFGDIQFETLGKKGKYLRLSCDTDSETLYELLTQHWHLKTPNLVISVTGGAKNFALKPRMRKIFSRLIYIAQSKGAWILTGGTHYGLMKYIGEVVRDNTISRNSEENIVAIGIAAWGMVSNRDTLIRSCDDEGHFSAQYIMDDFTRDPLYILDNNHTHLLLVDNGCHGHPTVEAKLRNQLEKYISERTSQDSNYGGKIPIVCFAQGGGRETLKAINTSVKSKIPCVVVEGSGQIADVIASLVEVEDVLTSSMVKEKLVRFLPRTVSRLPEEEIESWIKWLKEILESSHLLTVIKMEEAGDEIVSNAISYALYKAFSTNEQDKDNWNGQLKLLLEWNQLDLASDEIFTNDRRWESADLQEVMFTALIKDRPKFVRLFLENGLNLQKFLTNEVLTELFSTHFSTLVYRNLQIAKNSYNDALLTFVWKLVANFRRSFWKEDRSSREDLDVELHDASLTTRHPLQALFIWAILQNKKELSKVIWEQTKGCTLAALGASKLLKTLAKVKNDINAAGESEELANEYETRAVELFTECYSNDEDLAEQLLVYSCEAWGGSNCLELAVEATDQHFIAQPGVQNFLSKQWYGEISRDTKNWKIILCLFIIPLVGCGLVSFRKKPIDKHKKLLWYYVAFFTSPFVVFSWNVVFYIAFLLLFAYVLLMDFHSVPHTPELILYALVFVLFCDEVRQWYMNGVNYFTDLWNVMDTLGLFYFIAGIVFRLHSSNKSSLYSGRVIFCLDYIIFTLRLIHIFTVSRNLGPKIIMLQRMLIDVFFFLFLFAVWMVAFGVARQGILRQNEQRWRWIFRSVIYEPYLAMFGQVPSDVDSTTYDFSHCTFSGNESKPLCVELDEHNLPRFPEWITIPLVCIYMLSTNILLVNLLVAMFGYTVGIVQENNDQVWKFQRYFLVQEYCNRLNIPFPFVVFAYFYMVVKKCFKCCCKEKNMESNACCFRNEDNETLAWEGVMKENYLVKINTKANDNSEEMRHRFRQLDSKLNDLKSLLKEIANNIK

EC50 potency relative to l-menthol (TRPM8 [1]; FIG. 4): about 1/30
EC50 (TRPM8 [1]; FIG. 4, estimated): 410 µM
activity on TRPM8 as % of the activity of l-menthol (TRPM8 [1]; further experiments by the applicant): 10%
potency relative to menthol (TRPM8 [1]; tests by Prof Lee (FIG. 4)): < 0.1
SMILES: CCNC(=O)C(CC)(C(C)C)C(C)C [FEMA 4557, N-ethyl-2,2-diisopropylbutanamide]
Cooling Intensity Oral Cavity Scaled (oral cavity): 3.3
average time of cooling (philtrum skin; 8% concentration): ≥ 175 min
Duration of cooling (philtrum skin; 8% wt./vol. gel, FIG. 6): ~3 h
Comments: quality of sensation on philtrum skin (philtrum skin; 8% wt/vol): icy cold sensations, prolonged cooling,
duration of effect of topical gel (philtrum skin; [13]): ≥ 3 h
onset of topical gel (philtrum skin; [13]): less than 3 min
Duration of cooling (philtrum skin; 8% wt/vol on philtrum): 180+ min
total therapeutic duration (philtrum skin; 16 to 32%): at least 6 hr
after effect: further cooling on the skin (philtrum skin; 16 to 32%, revealed by warm towel): 3 h
cooling duration compared to menthol (philtrum skin; >180/25): > 7 fold
Duration-Skin (philtrum skin; Wei, Table 6, see FIG. 6): 3+ Hours
Duration of cooling (philtrum skin; concentrations ≥5%, FIG. 7): ≥ 1 h
skin tissue irritation or inflammation (philtrum skin; concentrations ≥5%, up to 50% wt/vol): not observed or detected
average time of cooling (philtrum skin; first concentration of '2.4 and 8%' (2%)): 50 min
effective concentration for topical activity on the skin (philtrum skin; in vivo): ≥ 5%
average time of cooling (philtrum skin; second concentration of '2.4 and 8%' (4%)): 95 min
Duration of cooling (philtrum skin; single dose of the 16 to 32% solution): ~3 h
sensation on the philtrum (philtrum skin; solution at ≥64%): pleasant and robust cool
adverse sensations of stinging cold (philtrum skin; solution at ≥64% on the philtrum): No cold stinging sensations were felt
tolerability on the skin (philtrum skin; solutions of ≥32%): well-tolerated
Onset (philtrum skin; [14]): ~10 min
effect on scratching and rashes [2]: effective for scratching caused by bites of ectoparasites and rashes caused by yeast infection
EC50 (TRPM8 [3]): 1600 nM
Effects of 15 mg on tongue: duration (tongue): > 35 min
Effects of 15 mg on tongue: sensation (tongue): stinging, freezing, and painful cold on the throat; also recorded: stinging, painful freezing cold in throat
Effects of 15 mg on tongue: sensation (tongue; listed as 4557): stinging, painful cold
scratching and licking ([4]; Study 2, Dachshund, 8% wt/vol gel on belly and groin, within one day): scratching and licking were reduced
redness and swelling ([4]; Study 2, after three days of daily application of 8% gel): the redness and swelling disappeared
licking of paws ([4]; Study 3, 20% wt/vol solution in propylene glycol on interdigital folds): stopped licking its front paws
scratching ([4]; Study 3, West Highland Terrier, 8% gel on groin, hindquarters, perianal area): stopped the scratching
signs of skin discomfort ([4]; Study 3, after five days of treatment): All signs of skin discomfort disappeared
anti-itch effect of topical formulations ([4]; topical gel or solution, insect bites, dermatitis, allergies): effectively treated the itch; also recorded: anti-itch effects on flea bites and other skin
Side-effects [4, 14]: None observed
activity on TRPA1 as reported in literature (TRPA1 [5]): activates TRPA1
activity on TRPA1 (TRPA1 [6]): absence of activity; also recorded: not active
Absence of Irritancy [7]: A
Potency [7]: C
Rapid Onset [7]: B
Safety in Use [7]: A
Sufficient Duration [7]: A+

potency relative to menthol (TRPM8 EC50 ratio) (TRPM8 [8]): 1
potency relative to menthol (TRPM8 EC50 ratio) (TRPM8 [9]): 0.13
potency relative to menthol (TRPM8 EC50 ratio) (TRPM8 [11]): 0.09
SMILES: CNC(=O)C(C)(C(C)C)C(C)C [WS-23]
Cooling Intensity Oral Cavity Scaled (oral cavity): 2.25
Duration of cooling (philtrum skin; 8% wt/vol on philtrum): 0.417 ± 0.05 h
EC50 (TRPM8 [10]): 1.5 mM
EC50 (TRPM8 [3]): 2200 nM
Effects of 15 mg on tongue: duration (tongue): ~18 min
Effects of 15 mg on tongue: sensation (tongue): painful cold in throat
EC50 (TRPM8 [12]): 44 µM
